Tests used:
[1] = Selectivity for mouse brain delta opioid receptor over guinea pig brain kappa opioid receptor
[2] = Selectivity for mouse brain delta opioid receptor over guinea pig brain mu opioid receptor
[3] = target: Kappa-type opioid receptor (Cavia porcellus, UniProt P41144); assay: Displacement of [3H]U-69593 from kappa opioid receptor in guinea pig brain membranes; assay type: cell membranes, Membrane
Mu-type opioid receptor = Mu-type opioid receptor (Cavia porcellus, UniProt P97266); assay: Displacement of [3H]DAMGO from mu opioid receptor in guinea pig brain membranes; assay type: cell membranes, Membrane
Sequence of Mu-type opioid receptor (P97266 whole entry): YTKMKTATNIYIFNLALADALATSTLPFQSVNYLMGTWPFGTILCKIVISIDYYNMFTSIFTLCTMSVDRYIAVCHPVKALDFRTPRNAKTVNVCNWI

[4] = target: Delta-type opioid receptor (Mus musculus, UniProt P32300); assay: Displacement of [3H]NTI from delta opioid receptor in CD1 mouse brain membranes; assay type: cell membranes, Membrane
Sequence of Delta-type opioid receptor (P32300 whole entry): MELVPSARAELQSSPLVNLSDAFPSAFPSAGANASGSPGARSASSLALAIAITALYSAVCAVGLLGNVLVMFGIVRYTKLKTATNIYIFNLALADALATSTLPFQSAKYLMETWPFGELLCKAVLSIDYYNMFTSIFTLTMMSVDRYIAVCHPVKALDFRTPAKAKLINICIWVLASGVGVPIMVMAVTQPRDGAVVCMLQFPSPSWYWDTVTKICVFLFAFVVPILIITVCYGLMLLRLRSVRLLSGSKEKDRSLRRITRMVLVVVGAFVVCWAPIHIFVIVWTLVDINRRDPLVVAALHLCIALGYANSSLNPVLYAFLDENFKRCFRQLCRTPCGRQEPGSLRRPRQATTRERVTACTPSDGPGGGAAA

[5] = Lipophilicity, log D at pH7.4; assay type: physicochemical; details: buffer, pH 7.4

Sequence of Kappa-type opioid receptor (P41144 whole entry): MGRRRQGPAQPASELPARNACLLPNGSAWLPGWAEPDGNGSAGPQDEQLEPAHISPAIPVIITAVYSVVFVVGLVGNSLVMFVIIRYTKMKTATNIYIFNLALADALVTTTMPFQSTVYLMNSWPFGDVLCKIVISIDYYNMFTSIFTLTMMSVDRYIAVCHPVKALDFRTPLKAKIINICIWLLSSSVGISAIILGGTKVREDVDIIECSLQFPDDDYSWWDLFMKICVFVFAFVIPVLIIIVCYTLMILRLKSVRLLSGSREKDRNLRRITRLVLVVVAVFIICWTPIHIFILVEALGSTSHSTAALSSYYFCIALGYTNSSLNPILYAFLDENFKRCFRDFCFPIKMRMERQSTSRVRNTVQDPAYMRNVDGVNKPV

`O=C(O)CN1CCN(CCCCCn2c3c(c4ccccc42)C[C@@]2(O)[C@H]4Cc5ccc(O)c6c5[C@@]2(CCN4CC2CC2)[C@@H]3O6)CCN(CC(=O)O)CCN(CC(=O)O)CC1` gave a Ratio Ki [1] of 131, a Ratio Ki [2] of 241 and a Ki [3] of 26.2 nM. For the same molecule, the Ki (Mu-type opioid receptor) was 48.2 nM and the Ki [4] was 0.2 nM.
Work on `O=C(O)CN1CCN(CCn2c3c(c4ccccc42)C[C@@]2(O)[C@H]4Cc5ccc(O)c6c5[C@@]2(CCN4CC2CC2)[C@@H]3O6)CCN(CC(=O)O)CCN(CC(=O)O)CC1` yielded a Ratio Ki [1] of 410, a Ratio Ki [2] of 357 and a Ki [3] of 2010 nM. For the same molecule, the Ki (Mu-type opioid receptor) was 1750 nM and the Ki [4] was 4.9 nM.
Work on `Oc1ccc2c3c1O[C@H]1c4[nH]c5ccccc5c4C[C@@]4(O)[C@@H](C2)N(CC2CC2)CC[C@]314` [NALTRINDOLE] yielded a logD [5] of 2.41, a Ki [3] of 14.9 nM and a Ki (Mu-type opioid receptor) of 33.9 nM.

Source: ChEMBL document CHEMBL1147134, “Indium-labeled macrocyclic conjugates of naltrindole: high-affinity radioligands for in vivo studies of peripheral delta opioid receptors” (J Med Chem, 2007)
